From ChEMBL document CHEMBL5365543, “Benzamidine Conjugation Converts Expelled Potential Active Agents into Antifungals against Drug-Resistant Fungi” (J Med Chem, 2023)
In brackets after ≈: the same amount, converted by molar mass. Each block holds one compound with its values, some of them ahead of it. Activity calls are given as the source filed them. The calls are words filed in the database; no cut-off is given here.

How the values were obtained:
Candida albicans [1] = experiment: Antifungal activity against wild-type Candida albicans SC5314 assessed as inhibition of fungal growth measured after 24 hrs by CLSI based microtiter plate analysis; assay type: functional
[2] = Drug accumulation in wild-type Candida albicans SC5314 at 50 microg/ml incubated for 3 hrs by HPLC analysis; assay type: ADME; details: dose 50 µg/ml
Candida albicans [3] = experiment: microbe, parasite or virus in culture; assay type: functional; details: DSY654, time 24 hrs
Description: Antifungal activity against efflux pump-deficient Candida albicans DSY654 assessed as inhibition of fungal growth measured after 24 hrs by CLSI based microtiter plate analysis

Candida albicans [4] = experiment: Antifungal activity against clinical isolate Candida albicans YEM13 overexpressing efflux pump MdrL assessed as inhibition of fungal growth measured after 24 hrs by CLSI based microtiter plate analysis; assay type: functional
Candida albicans [5] = experiment: Antifungal activity against clinical isolate Candida albicans YEM15 overexpressing efflux pump CdrL and Cdr2 assessed as inhibition of fungal growth measured after 24 hrs by CLSI based microtiter plate analysis; assay type: functional
Candida albicans [6] = experiment: Antifungal activity against clinical isolate Candida albicans SCUPC2R14MPG2A harbouring UPC2 mutation overexpressing […] Erg11 assessed as inhibition of fungal growth measured after 24 hrs by CLSI based microtiter plate analysis; assay type: functional
Candida albicans [7] = experiment: Antifungal activity against clinical isolate fluconazole-resistant Candida albicans DSY296 harbouring TAC1 mutation overexpressing efflux pump CdrL and Cdr2 assessed as inhibition of fungal growth measured after 24 hrs by CLSI based microtiter plate analysis; assay type: functional
Candida albicans [8] = experiment: Antifungal activity against clinical isolate fluconazole-resistant Candida albicans G5 harbouring MRR1 mutation overexpressing MdrL assessed as inhibition of fungal growth measured after 24 hrs by CLSI based microtiter plate analysis; assay type: functional
Candida albicans [9] = experiment: Antifungal activity against clinical isolate fluconazole-resistant Candida albicans Gu5 harbouring TAC1 mutation overexpressing efflux pump CdrL and Cdr2 assessed as inhibition of fungal growth measured after 24 hrs by CLSI based microtiter plate analysis; assay type: functional
Candida albicans [10] = experiment: Antifungal activity against clinical isolate fluconazole-resistant Candida albicans CA632 assessed as inhibition of fungal growth measured after 24 hrs by CLSI based microtiter plate analysis; assay type: functional
[Candida] auris [11] = Antifungal activity against clinical isolate fluconazole-resistant Candida auris CBS12774 assessed as inhibition of fungal growth measured after 24 hrs by CLSI based microtiter plate analysis; assay type: functional; details: Candidozyma auris
[Candida] auris [12] = Antifungal activity against clinical isolate fluconazole-resistant Candida auris CBS12776 assessed as inhibition of fungal growth measured after 24 hrs by CLSI based microtiter plate analysis; assay type: functional; details: Candidozyma auris
Nakaseomyces glabratus = experiment: Antifungal activity against clinical isolate fluconazole-resistant Candida glabrata CG2 assessed as inhibition of fungal growth measured after 24 hrs by CLSI based microtiter plate analysis; assay type: functional
Cryptococcus neoformans = experiment: Antifungal activity against clinical isolate fluconazole-resistant Cryptococcus neoformans H99 assessed as inhibition of fungal growth measured after 24 hrs by CLSI based microtiter plate analysis; assay type: functional
Candida tropicalis = experiment: Antifungal activity against clinical isolate fluconazole-resistant Candida tropicalis CT10 assessed as inhibition of fungal growth measured after 24 hrs by CLSI based microtiter plate analysis; assay type: functional
[13] = Candida albicans, SC5314, read-out: MIC80

SMILES: C=C(C)[C@@H]1CC[C@]2(C(=O)O)CC[C@]3(C)[C@H](CC[C@@H]4[C@@]5(C)CC[C@H](O)C(C)(C)[C@@H]5CC[C@]43C)[C@@H]12 [BETULINIC ACID]
MIC (Candida albicans [1]; Candida albicans, SC5314): > 256 µg/mL
Drug uptake ([2]; BLD = below limit of detection): Bld

MIC (Candida albicans [3]): 16 µg/mL (≈ 43.3 µM)
MIC (Candida albicans [1]): inactive
SMILES: O=C(OCCOCCO)c1ccccc1Nc1cccc(C(F)(F)F)c1 [ETOFENAMATE]

MIC (Candida albicans [1]; Candida albicans, SC5314): > 256 µg/mL
Drug uptake ([2]; BLD = below limit of detection): Bld
SMILES: CC(=O)O[C@H]1C[C@@]2(C)[C@@H](C[C@@H](O)[C@H]3[C@@]4(C)CC[C@@H](O)[C@@H](C)[C@@H]4CC[C@@]32C)/C1=C(\CCC=C(C)C)C(=O)O [FUSIDIC ACID]

MIC80 (Candida albicans [1]; [13]): 32 µg/mL (≈ 68.9 µM)
Drug uptake [2]: Active
SMILES: N=C(N)c1ccc(OCCCN2CCN(C(c3ccc(F)cc3)c3ccc(F)cc3)CC2)cc1

MIC (Candida albicans [3]): 4 µg/mL (≈ 13.4 µM)
Drug uptake ([2]; BLD = below limit of detection): Bld
SMILES: Cc1ccc(Sc2ccccc2N2CCNCC2)c(C)c1 [VORTIOXETINE]

MIC (Candida albicans [1]; Candida albicans, SC5314): > 256 µg/mL
Drug uptake ([2]; BLD = below limit of detection): Bld
SMILES: CC1(C)C2CCC1(C)C(O)C2 (centres undefined) [BORNEOL]

MIC80 (Candida albicans [1]; [13]): 8 µg/mL (≈ 22.3 µM)
Drug uptake [2]: Active
SMILES: CC1(C)[C@@H]2CC[C@@]1(C)[C@@H](OC(=O)CCCOc1ccc(C(=N)N)cc1)C2

Drug uptake ([2]; BLD = below limit of detection): Bld
SMILES: C=C1C(=O)[C@@]2(C)CC[C@@H]3[C@]1(CC[C@H]1[C@@]3(C)CCC[C@@]1(C)C(=O)O)C2

MIC (Candida albicans [1]; Candida albicans, SC5314): > 256 µg/mL
Drug uptake ([2]; BLD = below limit of detection): Bld
SMILES: C=C1C(=O)O[C@@]23CC[C@H]4[C@@](C)(CCC[C@@]4(C)C(=O)O)[C@@H]2CC[C@]1(O)C3

MIC80 (Candida albicans [1]; [13]): 64 µg/mL (≈ 101 µM)
Drug uptake [2]: Active
SMILES: C=C(C)[C@@H]1CC[C@]2(C(=O)OCCCOc3ccc(C(=N)N)cc3)CC[C@]3(C)[C@H](CC[C@@H]4[C@@]5(C)CC[C@H](O)C(C)(C)[C@@H]5CC[C@]43C)[C@@H]12

Drug uptake ([2]; BLD = below limit of detection): Bld
SMILES: C[C@@]12CC[C@@H]3[C@@](CC[C@H]4[C@@]3(C)CCC[C@@]4(C)C(=O)O)(CC1=O)C2 [ISOSTEVIOL]

MIC80 (Candida albicans [3]): 128 µg/mL
MIC80 (Candida albicans [1]; [13]): 128 µg/mL
SMILES: Cc1cc(N)c2ccccc2[n+]1CCCCCI.[I-]

MIC (Candida albicans [3]): 4 µg/mL (≈ 15 µM)
Drug uptake ([2]; BLD = below limit of detection): Bld
SMILES: C=CCc1ccc(O)c(-c2ccc(O)c(CC=C)c2)c1 [HONOKIOL]

MIC80 (Candida albicans [3]): > 256 µg/mL
MIC80 (Candida albicans [1]; [13]): > 256 µg/mL
SMILES: BrCCC[P+](c1ccccc1)(c1ccccc1)c1ccccc1.[Br-]

SMILES: Clc1ccc2c(c1)CCc1cccnc1C2=C1CCNCC1 [DESLORATADINE]
Drug uptake ([2]; BLD = below limit of detection): Bld

SMILES: C[C@@H]1[C@H](O)[C@@H](C)/C=C/C=C/C=C/C=C/C=C/C=C/C=C/[C@H](O[C@@H]2O[C@H](C)[C@@H](O)[C@H](N)[C@@H]2O)C[C@@H]2O[C@](O)(C[C@@H](O)C[C@@H](O)[C@H](O)CC[C@@H](O)C[C@@H](O)CC(=O)O[C@H]1C)C[C@H](O)[C@H]2C(=O)O [AMPHOTERICIN B]
MIC80 (Candida albicans [1]; Candida albicans, SC5314, 24 h, read-out: MIC80): 0.5 µg/mL (≈ 0.541 µM)
MIC80 (Candida albicans [4]): 0.5 µg/mL (≈ 0.541 µM)
MIC80 (Candida albicans [5]): 2 µg/mL (≈ 2.16 µM)
MIC80 (Candida albicans [6]): 0.5 µg/mL (≈ 0.541 µM)
MIC80 (Candida albicans [7]): 0.5 µg/mL (≈ 0.541 µM)
MIC80 (Candida albicans [8]): 0.5 µg/mL (≈ 0.541 µM)
MIC80 (Candida albicans [9]): 1 µg/mL (≈ 1.08 µM)
MIC80 (Candida albicans [10]): 0.5 µg/mL (≈ 0.541 µM)
MIC80 ([Candida] auris [11]): 1 µg/mL (≈ 1.08 µM)
MIC80 ([Candida] auris [12]): 1 µg/mL (≈ 1.08 µM)
MIC80 (Nakaseomyces glabratus): 0.5 µg/mL (≈ 0.541 µM)
MIC80 (Cryptococcus neoformans): 1 µg/mL (≈ 1.08 µM)
MIC80 (Candida tropicalis): 2 µg/mL (≈ 2.16 µM)

MIC (Candida albicans [3]): 4 µg/mL (≈ 12.9 µM)
Drug uptake ([2]; BLD = below limit of detection): Bld
SMILES: C#C[C@]1(O)CC[C@H]2[C@@H]3CCC4=CCCC[C@@H]4[C@H]3C(=C)C[C@@]21CC [DESOGESTREL]

MIC80 (Candida albicans [1]; [13]): 64 µg/mL (≈ 125 µM)
Drug uptake [2]: Active
SMILES: C=C1[C@H](O)[C@@]23CC[C@H]4[C@@](C)(CCC[C@@]4(C)C(=O)OCCCOc4ccc(C(=N)N)cc4)[C@@H]2CC[C@]1(O)C3

MIC (Candida albicans [1]; Candida albicans, SC5314): > 256 µg/mL
Drug uptake ([2]; BLD = below limit of detection): Bld
SMILES: Fc1ccc(C(c2ccc(F)cc2)N2CCNCC2)cc1

MIC (Candida albicans [3]): 256 µg/mL (≈ 770 µM)
MIC (Candida albicans [1]): inactive
Drug uptake ([2]; BLD = below limit of detection): Bld
SMILES: C=C1C(=O)[C@@]23CC[C@H]4[C@@](C)(CCC[C@@]4(C)C(=O)O)[C@@H]2CC[C@]1(O)C3
